These results are taken from PMC6522941, “Design, synthesis, and anticancer evaluation of novel quinoline derivatives of ursolic acid with hydrazide, oxadiazole, and thiadiazole moieties as potent MEK inhibitors” (Journal of Enzyme Inhibition and Medicinal Chemistry, 2019).

The subject of assay [1] is HeLa cells. The assay can be described thus: Cell cycle analysis (PI staining, flow cytometry). Format: cell-based, human. As to conditions: 0.2 μM, 48 h. The procedure:
Cell cycle distributions in HeLa cells were determined through PI staining and analysed by flow cytometry. HeLa cells were seeded into a six-well plate at 5 × 10^5 cell/mL and treated with different concentrations of compound 4d for 48 h. After treatment, cells were detached with 0.25% trypsin, harvested by centrifugation, washed twice with ice-cold PBS and then fixed and permeabilised with ice-cold 70% ethanol at 4 °C overnight. Ethanol was removed and the cells were washed twice with ice-cold PBS. After this, the cells were treated with 100 μL of RNase (100 μg/mL) at 37 °C for 30 min, followed by incubation with 400 μL of DNA staining solution propidium iodide (PI) (1 mg/mL) in the dark at 4 °C for 30 min. The samples were analysed by a flow cytometer (Becton-Dickinson FACSCalibur, Totowa, NJ, USA) and data were analysed using the FlowJo software (Becton-Dickinson & Co, Totowa, NJ, USA).
Cell cycle distribution in HeLa cells was examined to determine whether or not compound 4d inhibited the proliferation of these cells through cell cycle arrest. HeLa cells were treated with different concentrations of compound 4d (0, 0.05, 0.1, and 0.2 μM) for 48 h. Cell cycle distribution was investigated by flow cytometric analysis after staining the DNA of the treated cells by PI. […] This phenomenon was accompanied by a decrease in the population of cells in G2/M phase.

Assay [2] deals with HeLa cells. The assay can be described thus: ROS generation assay (DCFH-DA). Particulars: 0.2 μM, 48 h. The class given is cell-based, human. The procedure:
ROS generation assay was performed by using the reactive oxygen species assay kit (Beyotime Biotech., Nantong, China). Intracellular ROS generation was tested through dichlorodihydro fluorescein diacetate (DCFH-DA) assay. DCFH-DA is taken up by HeLa cells, and then activated by esterase-mediated cleavage of acetate to form DCFH, which is trapped in the cells. DCFH is converted to fluorescein DCF in the presence of ROS. HeLa cells were seeded in six-well plates and incubated with different concentrations of compound 4d for 48 h. After removing the compound solution, cells were treated with 10 μM of DCFH-DA at 37 °C for 20 min. Subsequently, the cells were washed with PBS for three times and then exposed to light. Immediately after light exposure, the fluorescence intensity of dichlorofluorescein (DCF) was measured with excitation at 488 nm and emission at 525 nm by a flow cytometry (Becton-Dickinson FACSCalibur, Totowa, NJ, USA).
ROS has been reported to be involved in early stages of apoptosis in many cellular systems. […] HeLa cells were exposed to compound 4d at 0 ∼ 0.2 μM concentrations for 48 h and the intracellular fluorescence intensity was quantitatively analysed by flow cytometry. […]

In assay [3] the test system is HeLa cells. The assay can be described thus: MTT cytotoxic assay, HeLa. Format: cell-based. As to conditions: Homo sapiens, 72 h. The procedure: (§1) Human breast cancer cell line (MDA-MB-231), cervical carcinoma cell line (HeLa), the liver cancer cell line (SMMC-7721) and normal hepatocyte cell line (QSG-7701) were maintained in Dulbecco Modified Eagle Medium (DMEM) containing 4.0 mM L-Glutamine and 4500 mg/L Glucose supplemented with 10% (v/v) foetal bovine serum (FBS) and 100 U/mL penicillin/streptomycin at 37 °C in humidified atmosphere of 5% CO2 and 95% air.
(§2) Exponentially growing MDA-MB-231, Hela and SMMC-7721 cell lines were seeded into 96-well plate for 100 μL and treated with different concentrations of the synthetic compounds for 72 h, and then 10 μL of MTT (10 mg/mL) was added and incubation for 3 ∼ 4 h at 37 °C. The generated purple formazan crystals from viable can be dissolved by adding 100 μL DMSO. The plates were swirled gently for 5 min and quantified by measuring the OD of the plates at the wavelength of 540 nm. Each concentration was repeated in three wells and the same experimental condition was provided for all compounds. The results were expressed as IC50 values with standard deviations, which was defined as the concentration at which 50% survival of cells was discerned. Etoposide was co-assayed as positive control.
(§3) The in vitro cytotoxic activity of derivatives 3a–d, 4a–h, 5a–h, and 6a–h were evaluated by MTT assay against human breast cancer cell line (MDA-MB-231), cervical carcinoma cell line (HeLa), hepatocarcinoma cell line (SMMC-7721) and human normal hepatocyte cell line (QSG-7701). The anticancer drug etoposide was co-assayed as the positive control. All tested compounds were dissolved in DMSO and the stock solutions were diluted by DMEM medium before treatment of the cultured cells.

In assay [4] the test system is HeLa cells. The assay can be described thus: Annexin V-FITC/PI dual staining apoptosis assay. Format: cell-based, human. Particulars: 48 h, control 6.44. The procedure:
The extent of apoptosis was quantitatively measured using Annexin V-FITC/PI dual staining assay. HeLa cells were seeded into a six-well plate at 5 × 10^5 cells per well in 10% foetal calf serum (FBS)-DMEM into six-well plates and treated with different concentrations of the indicated compound 4d for 48 h. The cells were detached with 0.25% trypsin, washed with ice-cold PBS for twice and then resuspended in 1 × Binding buffer ([…]). The cells were stained with 5 μL of Annexin V-FITC and 5 μL of PI ([…]) to each tube. The cells were gently vortexed and incubated in the dark at room temperature for 15 min and then keep them at 4 °C. The samples were analysed by a flow cytometer (Becton-Dickinson FACSCalibur, Totowa, NJ, USA) and data were analysed using the FlowJo software.
The Annexin V-FITC/PI dual staining assay on HeLa cells treated with compound 4d was carried out to examine the association of compound 4d-mediated cytotoxicity with induction of apoptosis.

The next assay relates to QSG-7701 cells. The assay can be described thus: MTT cytotoxic assay, normal hepatocyte QSG-7701. Format: cell-based, human. The procedure:
as §1, §2, §3

The subject of a further assay is SMMC-7721 cells. The assay can be described thus: MTT cytotoxic assay, SMMC-7721. Format: cell-based. As to conditions: Homo sapiens, 72 h. The procedure: as §1, §2, §3

Consider `CC(=O)NNC(=O)C12CCC(C)C(C)C1C1=CCC3C4(C)Cc5cc6cc(Cl)ccc6nc5C(C)(C)C4CCC3(C)C1(C)CC2` (centres unmarked) [Compound 4d, N-[5′-chloro-ursa-12-en-(2,3)-quinoline-28-oyl]-acetohydrazide], for which, in the assay on HeLa cells [1] (control 25.95), the “population of cells in G2/M phase” value was 8.51%. In the assay with HeLa cells [1] (control 48.32), the “population of cells in G0/G1 phase” value was determined as 63.75%. For the same compound, the “increase of mean fluorescence intensity compared to the control group” value in the assay on HeLa cells [2] is 84%. In addition, in the assay with HeLa cells [2] (control 13.18), the “% relative ROS raised cells” value came to 49.66%. Besides, the IC50 in the assay with HeLa cells [3] came out at 0.08 ± 0.01 µM; in the assay with QSG-7701 cells (Homo sapiens, QSG7701, MTT, normal hepatocyte cell line) it was 10.8 ± 0.72 µM; in the assay on SMMC-7721 cells, 0.34 ± 0.03 µM. Further, the entries for the “percentage of early and late apoptotic cells” value in the assay with HeLa cells [4] (0.05 μM), with HeLa cells [4] (0.1 μM) and with HeLa cells [4] (0.2 μM) were 37.56%, 58.31% and 74.22%, respectively. Also, in the assay with QSG-7701 cells (IC50 (QSG-7701)/IC50 (HeLa)), the Selectivity came out at 134.5.
